Measurements reported in patent US11266715B2, “C3A receptor agonists for use against ischemic brain injury, stroke, traumatic brain injury, spinal cord injury and neurodegenerative disorders” (priority 2016, dated 2022).

How the values were obtained:
Assay type in all cases: in vivo, mouse
[1] = tested on: mice subjected to neonatal HI injury; assay: Cue-induced fear conditioning after neonatal HI injury, 7 days intranasal treatment
Experimental: In the long-term study (7 days of intranasal treatment), […] of wild-type (WT) and C3aR^−/− mice subjected to neonatal HI injury and treated with either C3a or PBS were used; WT HI-C3a (n=5), WT HI-PBS (n=8), C3aR^−/− HI-C3a (n=7), C3aR^−/− HI-PBS (n=8). These mice were tested in a cue-induced fear conditioning test at P50 and brains were collected at P51 (FIG. 7A).
Neonatal HI injury was induced on postnatal day 9 (P9), as previously described with modifications for mice (Hedtjärn et al., 2002; Rice et al., 1981; Sheldon et al., 1998). Mice were anesthetized with 3.5% isoflurane (Baxter Medical, Kista, Sweden) for induction and 1.5% thereafter, in 1:1 oxygen and nitrous oxide. The left common carotid artery was dissected and permanently ligated with a prolene suture (6.0). […]
Cue-induced fear conditioning with a shock-paired tone and light cue was performed on P49 and P50 as previously described (Järlestedt et al., 2011). […] Freezing behaviour, a defensive response to a perceived threat, was defined as a complete lack of movement and quantified by scoring freezing behaviour (on video footage) as present or absent once every 10 s for 2 min. […] On P50, animals were again placed in the conditioning box and freezing behaviour was measured for 2 min. Following this, the shock-paired tone and light were presented for 30 s and freezing behaviour was then measured again for 2 min. […]

[2] = tested on: mice subjected to neonatal HI injury; assay: Histomorphologic evaluation of hippocampus volume after neonatal HI; details: WT or C3aR−/− mice, regardless of treatment length, P51-55
Experimental: On P51 (long-term study) or P55 (short-term study), mice were deeply anesthetized with thiopental [Pentothal Sodium (0.01 ml/g body weight), Hospira, Ill., USA)] and transcardially perfused with 0.9% saline, followed by 4% paraformaldehyde (PFA) in 0.1 M PBS. Brains were removed and post-fixed in 4% PFA at 4° C. for 24 h followed by 70% ethanol for 24 h. Tissue was processed using an automatic tissue processor (SAKURA Tissue Tek VIP 3000, Tournai, Belgium) and embedded in paraffin. Brains were cut at room temperature into 8-μm serial coronal sections using a sliding microtome (Microm HM 450, Thermo Scientific, Massachusetts, USA), attached to silane coated slides and dried at RT.
For the histomorphologic evaluation, slides were incubated for 1 h at 65° C. and stained with haematoxylin and eosin. A wide-field microscope (Nikon Eclipse 80i; Nikon Instruments Inc., Tokyo, Japan) equipped with a color camera (Nikon DXM 1200F) was used to obtain images of brain sections 208 μm apart between −1.60 mm and −2.02 mm relative to Bregma; 3 sections/mouse. ImageJ 1.46r software was used to trace around the ipsilesional and contralesional hippocampus and hemisphere. Volumes were calculated according to the Cavalieri's principle, where V=ΣA×P×T (Svedin et al., 2007) and hippocampus volume/hemisphere volume ratio was calculated for each hemisphere.

[3] = tested on: mice subjected to neonatal HI injury; assay: Open field after neonatal HI injury; details: P50, 3 days treatment
Experimental: In the short-term study (3 days of intranasal treatment), 3 groups of WT mice were used; animals subjected to neonatal HI injury and treated with either C3a (HI-C3a, n=18) or PBS (HI-PBS, n=18) and sham-operated animals treated with PBS (SHAM-PBS, n=19). These mice were tested in an open field and object recognition test (ORT) at P50-P54 and brains were collected at P55 (FIG. 8A).
Purified human C3a (Complement Technology Inc., Tyler, Tex., USA) was diluted in sterile phosphate buffered saline (PBS) to a concentration of 200 nM, and a total of 8 μl i.e. […] (4 μl/nostril; corresponding to ca. 2.56 μg/kg body weight) of peptide solution or PBS was given intranasally to awake and hand-restrained mice held in a supine position. Solutions were administered through a pipette tip, drop-wise in 2 μl-portions divided by 1 min intervals to allow for absorption. […] C3a or PBS was given every 24 hours for three (short-term study) or seven (long-term study) days starting 1 h after HI induction, i.e. between P9 and P11 or P9 and P15, respectively. Mice in each litter were randomly assigned to C3a or PBS treatment. Sham animals received PBS. […]
The activity of each animal on the first day of habituation to the object recognition test apparatus was recorded as an open field task to study locomotor and exploratory activities (Leke et al., 2012). […]

C3a: Purified human C3a peptide (Complement Technologies), C3a receptor agonist, amino acid sequence SEQ ID NO: 1
extent of freezing, C3a vs PBS ([1]; C3aR−/− mice, same protocol): did not differ
freezing behavior after the conditioned cue vs HI PBS-treated mice ([1]; WT mice, intranasal C3a once daily 7 days from 1 h after HI, p<0.05): significantly increased freezing behavior
HI-induced loss of hippocampal tissue [2]: did not affect HI-induced loss of hippocampal tissue
anxiety-like behavior (centre distance and time, rearing, grooming) [3]: anxiety-like behavior was not induced
general exploratory and locomotor activities (speed, activity, locomotion time, distance) [3]: did not affect general exploratory and locomotor activities
